{"source": "patent EP2951180B1", "about": "“2,6,7,8 SUBSTITUTED PURINES AS HDM2 INHIBITORS” (Merck Sharp & Dohme Corp., priority 2013, dated 2014)", "data": [{"biological_target": "T1, HDM2 (Homo sapiens, UniProt Q00987)", "T1 construct": "Thioredoxin (N); made in house; host or cells: E. coli strain BL21(DE3)Rosetta", "T1 sequence (Q00987 17-125)": "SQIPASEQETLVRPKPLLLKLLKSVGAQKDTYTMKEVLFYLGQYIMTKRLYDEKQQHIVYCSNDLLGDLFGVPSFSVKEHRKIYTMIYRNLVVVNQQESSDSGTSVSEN", "assay": "HDM2 FRET assay (inhibition of binding of FITC labeled p53-pocket peptide to HDM2)", "conditions": "Table 6; read-out: FRET IC50", "in_short": "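Displacement of FITC-p53 peptide (3 nM) from His-tagged HDM2 (0.5 nM) is measured by Tb-to-fluorescein FRET in PBS, 0.01% BSA, 0.01% Tween-20. IC50 values derive from 10-point curves.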", "units": {"IC50": "nM"}, "values": [{"smiles": "Cc1cccc(-c2nc3nc(C(=O)O)nc(NC4CCC(C)CC4)c3n2Cc2ccc(C(F)(F)F)cc2)c1", "note": "(stereo not shown) [Example 6.19, 6-[(4-methylcyclohexyl)amino]-8-(3-methylphenyl)-7-[4-(trifluoromethyl)benzyl]-7H-purine-2-carboxylic acid]", "IC50": 869}, {"smiles": "Cc1cccc(-c2nc3nc(C(=O)O)nc(NC4CCCC(C)C4)c3n2Cc2ccc(C(F)(F)F)cc2)c1", "note": "(stereo not shown) [Example 6.20, 6-[(3-methylcyclohexyl)amino]-8-(3-methylphenyl)-7-[4-(trifluoromethyl)benzyl]-7H-purine-2-carboxylic acid]", "IC50": 567}, {"smiles": "Cc1cccc(-c2nc3nc(C(=O)O)nc(NC4CCCC4C)c3n2Cc2ccc(C(F)(F)F)cc2)c1", "note": "(stereo not shown) [Example 6.21, 6-[(2-methylcyclopentyl)amino]-8-(3-methylphenyl)-7-[4-(trifluoromethyl)benzyl]-7H-purine-2-carboxylic acid]", "IC50": 422}, {"smiles": "Cc1cccc(-c2nc3nc(C(=O)O)nc(NC4CCCC4)c3n2Cc2ccc(C(F)(F)F)cc2)c1", "note": "[Example 6.22, 6-(cyclopentylamino)-8-(3-methylphenyl)-7-[4-(trifluoromethyl)benzyl]-7H-purine-2-carboxylic acid]", "IC50": 649}, {"smiles": "Cc1cccc(-c2nc3nc(C(=O)O)nc(N4CCCC4)c3n2Cc2ccc(C(F)(F)F)cc2)c1", "note": "[Example 6.23, 8-(3-methylphenyl)-6-pyrrolidin-1-yl-7-[4-(trifluoromethyl)benzyl]-7H-purine-2-carboxylic acid]", "IC50": 8270}, {"smiles": "Cc1cccc(-c2nc3nc(C(=O)O)nc(NC(C4CC4)C4CC4)c3n2Cc2ccc(C(F)(F)F)cc2)c1", "note": "[Example 6.24, 6-[(dicyclopropylmethyl)amino]-8-(3-methylphenyl)-7-[4-(trifluoromethyl)benzyl]-7H-purine-2-carboxylic acid]", "IC50": 329}, {"smiles": "Cc1cccc(-c2nc3nc(C(=O)O)nc(NCCc4ccccc4)c3n2Cc2ccc(C(F)(F)F)cc2)c1", "note": "[Example 6.25, 8-(3-methylphenyl)-6-[(2-phenylethyl)amino]-7-[4-(trifluoromethyl)benzyl]-7H-purine-2-carboxylic acid]", "IC50": 5080}, {"smiles": "Cc1cccc(-c2nc3nc(C(=O)O)nc(N[C@@H](C)c4cccc(Cl)c4)c3n2Cc2ccc(C(F)(F)F)cc2)c1", "note": "[Example 6.26, 6-{[(1S)-1-(3-chlorophenyl)ethyl]amino}-8-(3-methylphenyl)-7-[4-(trifluoromethyl)benzyl]-7H-purine-2-carboxylic acid]", "IC50": 6970}, {"smiles": "Cc1cccc(-c2nc3nc(C(=O)O)nc(N[C@H](C)c4cccc(Cl)c4)c3n2Cc2ccc(C(F)(F)F)cc2)c1", "note": "[Example 6.27, 6-{[(1R)-1-(3-chlorophenyl)ethyl]amino}-8-(3-methylphenyl)-7-[4-(trifluoromethyl)benzyl]-7H-purine-2-carboxylic acid]", "IC50": 2360}, {"smiles": "Cc1cccc(-c2nc3nc(C(=O)O)nc(NC4CCCCC4)c3n2Cc2ccc(C(F)(F)F)cc2)c1", "note": "[Example 6.28, 6-(cyclohexylamino)-8-(3-methylphenyl)-7-[4-(trifluoromethyl)benzyl]-7H-purine-2-carboxylic acid]", "IC50": 589}, {"smiles": "Cc1cccc(-c2nc3nc(C(=O)O)nc(NCc4ccccc4)c3n2Cc2ccc(C(F)(F)F)cc2)c1", "note": "[Example 6.29, 6-(benzylamino)-8-(3-methylphenyl)-7-[4-(trifluoromethyl)benzyl]-7H-purine-2-carboxylic acid]", "IC50": 1770}, {"smiles": "Cc1cccc(-c2nc3nc(C(=O)O)nc(N[C@H](C)c4ccccc4)c3n2Cc2ccc(C(F)(F)F)cc2)c1", "note": "[Example 6.30, 8-(3-methylphenyl)-6-{[(1R)-1-phenylethyl]amino}-7-[4-(trifluoromethyl)benzyl]-7H-purine-2-carboxylic acid]", "IC50": 1490}, {"smiles": "Cc1cccc(-c2nc3nc(C(=O)O)nc(N[C@@H](C)c4ccccc4)c3n2Cc2ccc(C(F)(F)F)cc2)c1", "note": "[Example 6.31, 8-(3-methylphenyl)-6-{[(1S)-1-phenylethyl]amino}-7-[4-(trifluoromethyl)benzyl]-7H-purine-2-carboxylic acid]", "IC50": 4300}, {"smiles": "Cc1cccc(-c2nc3nc(C(=O)O)nc(NC(C)C4CCCC4)c3n2Cc2ccc(C(F)(F)F)cc2)c1", "note": "(stereo not shown) [Example 6.32, 6-[(1-cyclopentylethyl)amino]-8-(3-methylphenyl)-7-[4-(trifluoromethyl)benzyl]-7H-purine-2-carboxylic acid]", "IC50": 373}, {"smiles": "Cc1cccc(-c2nc3nc(C(=O)O)nc(NC4CCC(C)CC4C)c3n2Cc2ccc(C(F)(F)F)cc2)c1", "note": "(stereo not shown) [Example 6.33, 6-[(2,4-dimethylcyclohexyl)amino]-8-(3-methylphenyl)-7-[4-(trifluoromethyl)benzyl]-7H-purine-2-carboxylic acid]", "IC50": 305}, {"smiles": "Cc1cccc(-c2nc3nc(C(=O)O)nc(NC4CCC(C)CC4C)c3n2Cc2ccc(C(F)(F)F)cc2)c1", "note": "(stereo not shown) [Example 6.34, 6-[(2,4-dimethylcyclohexyl)amino]-8-(3-methylphenyl)-7-[4-(trifluoromethyl)benzyl]-7H-purine-2-carboxylic acid]", "IC50": 1140}, {"smiles": "Cc1cccc(-c2nc3nc(C(=O)O)nc(NC4CCC(CNC(=O)OC(C)(C)C)CC4)c3n2Cc2ccc(C(F)(F)F)cc2)c1", "note": "(stereo not shown) [Example 6.35, 6-[(4-{[(tert-butoxycarbonyl)amino]methyl}cyclohexyl)amino]-8-(3-methylphenyl)-7-[4-(trifluoromethyl)benzyl]-7H-purine-2-carboxylic acid]", "IC50": 2340}, {"smiles": "Cc1cccc(-c2nc3nc(C(=O)O)nc(NCC4CC4)c3n2Cc2ccc(C(F)(F)F)cc2)c1", "note": "[Example 6.36, 6-[(cyclopropylmethyl)amino]-8-(3-methylphenyl)-7-[4-(trifluoromethyl)benzyl]-7H-purine-2-carboxylic acid]", "IC50": 670}, {"smiles": "Cc1cccc(-c2nc3nc(C(=O)O)nc(NC(C)C4CC4C)c3n2Cc2ccc(C(F)(F)F)cc2)c1", "note": "(stereo not shown) [Example 6.37, 6-{[1-(2-methylcyclopropyl)ethyl]amino}-8-(3-methylphenyl)-7-[4-(trifluoromethyl)benzyl]-7H-purine-2-carboxylic acid]", "IC50": 360}, {"smiles": "Cc1cccc(-c2nc3nc(C(=O)O)nc(NC(C)C4CC4C)c3n2Cc2ccc(C(F)(F)F)cc2)c1", "note": "(stereo not shown) [Example 6.38, 6-{[1-(2-methylcyclopropyl)ethyl]amino}-8-(3-methylphenyl)-7-[4-(trifluoromethyl)benzyl]-7H-purine-2-carboxylic acid]", "IC50": 530}, {"smiles": "Cc1cccc(-c2nc3nc(C(=O)O)nc(NC(C)C(C)(C)O)c3n2Cc2ccc(C(F)(F)F)cc2)c1", "note": "(stereo not shown) [Example 6.39, 6-[(2-hydroxy-1,2-dimethylpropyl)amino]-8-(3-methylphenyl)-7-[4-(trifluoromethyl)benzyl]-7H-purine-2-carboxylic acid]", "IC50": 2260}, {"smiles": "Cc1cccc(-c2nc3nc(C(=O)O)nc(NC4CCC(CO)CC4)c3n2Cc2ccc(C(F)(F)F)cc2)c1", "note": "(stereo not shown) [Example 6.40, 6-{[4-(hydroxymethyl)cyclohexyl]amino}-8-(3-methylphenyl)-7-[4-(trifluoromethyl)benzyl]-7H-purine-2-carboxylic acid]", "IC50": 925}, {"smiles": "Cc1cccc(-c2nc3nc(C(=O)O)nc(N[C@@H](C)C(C)(C)C)c3n2Cc2ccc(C(F)(F)F)cc2)c1", "note": "[Example 6.41, 8-(3-methylphenyl)-7-[4-(trifluoromethyl)benzyl]-6-{[(1S)-1,2,2-trimethylpropyl]amino}-7H-purine-2-carboxylic acid]", "IC50": 638}, {"smiles": "Cc1cccc(-c2nc3nc(C(=O)O)nc(N[C@H](C)C4CCCCC4)c3n2Cc2ccc(C(F)(F)F)cc2)c1", "note": "[Example 6.42, 6-{[(1R)-1-cyclohexylethyl]amino}-8-(3-methylphenyl)-7-[4-(trifluoromethyl)benzyl]-7H-purine-2-carboxylic acid]", "IC50": 564}, {"smiles": "Cc1cccc(-c2nc3nc(C(=O)O)nc(NC4CCOCC4)c3n2Cc2ccc(C(F)(F)F)cc2)c1", "note": "[Example 6.43, 8-(3-methylphenyl)-6-(tetrahydro-2H-pyran-4-ylamino)-7-[4-(trifluoromethyl)benzyl]-7H-purine-2-carboxylic acid]", "IC50": 1710}, {"smiles": "Cc1cccc(-c2nc3nc(C(=O)O)nc(N[C@H](C)c4ccc(Cl)cc4)c3n2Cc2ccc(C(F)(F)F)cc2)c1", "note": "[Example 6.44, 6-{[(1R)-1-(4-chlorophenyl)ethyl]amino}-8-(3-methylphenyl)-7-[4-(trifluoromethyl)benzyl]-7H-purine-2-carboxylic acid]", "IC50": 372}, {"smiles": "Cc1cccc(-c2nc3nc(C(=O)O)nc(N[C@@H](C)C4CCCCC4)c3n2Cc2ccc(C(F)(F)F)cc2)c1", "note": "[Example 6.45, 6-{[(1S)-1-cyclohexylethyl]amino}-8-(3-methylphenyl)-7-[4-(trifluoromethyl)benzyl]-7H-purine-2-carboxylic acid]", "IC50": 1610}, {"smiles": "Cc1cccc(-c2nc3nc(C(=O)O)nc(N[C@@H](C)c4ccc(Cl)cc4)c3n2Cc2ccc(C(F)(F)F)cc2)c1", "note": "[Example 6.46, 6-{[(1S)-1-(4-chlorophenyl)ethyl]amino}-8-(3-methylphenyl)-7-[4-(trifluoromethyl)benzyl]-7H-purine-2-carboxylic acid]", "IC50": 4120}, {"smiles": "Cc1cccc(-c2nc3nc(C(=O)O)nc(N[C@H](C)C(C)(C)C)c3n2Cc2ccc(C(F)(F)F)cc2)c1", "note": "[Example 6.47, 8-(3-methylphenyl)-7-[4-(trifluoromethyl)benzyl]-6-{[(1R)-1,2,2-trimethylpropyl]amino}-7H-purine-2-carboxylic acid]", "IC50": 448}, {"smiles": "Cc1cccc(-c2nc3nc(C(=O)O)nc(N[C@H](C)C(C)C)c3n2Cc2ccc(C(F)(F)F)cc2)c1", "note": "[Example 6.48, 6-{[(1R)-1,2-dimethylpropyl]amino}-8-(3-methylphenyl)-7-[4-(trifluoromethyl)benzyl]-7H-purine-2-carboxylic acid]", "IC50": 145}, {"smiles": "Cc1cccc(-c2nc3nc(C(=O)O)nc(N[C@@H](C)C(C)C)c3n2Cc2ccc(C(F)(F)F)cc2)c1", "note": "[Example 6.49, 6-{[(1S)-1,2-dimethylpropyl]amino}-8-(3-methylphenyl)-7-[4-(trifluoromethyl)benzyl]-7H-purine-2-carboxylic acid]", "IC50": 622}]}]}
